BindingDB's records for patent US20250177582 (Philochem, 2025)

Key:
[1] = biological target: T1, Prolyl endopeptidase FAP (Homo sapiens, UniProt Q12884); experiment: Inhibition Assay
T1 sequence (Q12884 whole entry): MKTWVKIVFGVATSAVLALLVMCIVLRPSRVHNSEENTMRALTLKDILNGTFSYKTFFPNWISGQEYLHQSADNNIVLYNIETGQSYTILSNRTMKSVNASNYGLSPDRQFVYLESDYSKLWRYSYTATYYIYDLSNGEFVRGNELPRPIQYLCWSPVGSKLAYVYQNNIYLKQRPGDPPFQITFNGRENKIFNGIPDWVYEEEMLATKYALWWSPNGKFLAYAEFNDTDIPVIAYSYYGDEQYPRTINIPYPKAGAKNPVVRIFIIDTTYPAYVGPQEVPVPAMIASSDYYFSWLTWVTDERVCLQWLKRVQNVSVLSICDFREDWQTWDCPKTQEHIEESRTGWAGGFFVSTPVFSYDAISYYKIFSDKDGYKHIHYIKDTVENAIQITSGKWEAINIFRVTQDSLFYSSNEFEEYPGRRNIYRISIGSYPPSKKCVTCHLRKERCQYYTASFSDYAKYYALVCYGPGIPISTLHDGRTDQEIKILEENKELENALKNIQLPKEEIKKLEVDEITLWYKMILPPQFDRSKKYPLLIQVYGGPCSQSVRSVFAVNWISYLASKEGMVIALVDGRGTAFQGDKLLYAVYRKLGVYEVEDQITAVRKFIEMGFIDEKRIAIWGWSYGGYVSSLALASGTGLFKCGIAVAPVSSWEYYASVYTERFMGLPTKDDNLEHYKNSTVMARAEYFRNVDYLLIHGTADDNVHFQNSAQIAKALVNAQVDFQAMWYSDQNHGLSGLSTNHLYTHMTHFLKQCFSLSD
Protocol: (§1) Inhibition assay of FAP. The compounds were precisely weighed (range between […]) on a micro-scale (HuberLab, Sartorius QUINTIX35-1S) and dissolved in DMSO to prepare stock solutions at 1 mM. Stock solutions were further diluted with FAP activation buffer (50 mM Tris, 100 mM NaCl, 1 mM EDTA, pH=7.4) to a final DMSO concentration of 10% v/v. 10 μL of each inhibitor were serially diluted in a 384 well plate (grenier-bio one, PS, F-bottom, Black, non-binding) with 10 μL of 10% DMSO FAP buffer (1:1 dilution). FAP (human and murine) was diluted to the desired concentration with FAP activation buffer and added to the serial dilution of inhibitor (10 μL for each well). Each protein-inhibitor solution was incubated for 30 minutes at room temperature. Each measurement was performed with an enzyme concentration (FAP) lower than the expected IC50. A 60 μM solution of substrate (Z-Gly-Pro-AMC) in FAP activation buffer (<1% DMSO) was added to the plate (10 μL for each well). The reaction was incubated from 1 minute to 48 hours at room temperature (22° C.-25° C.). The emission was read at 465 nm (excitation wavelength 360 nm) for 40 μs by Tecan Spark (s.n. 1808004082). […]

[2] = biological target: T2, Prolyl endopeptidase FAP (Mus musculus, UniProt P97321); experiment: Inhibition Assay
T2 sequence (P97321 whole entry): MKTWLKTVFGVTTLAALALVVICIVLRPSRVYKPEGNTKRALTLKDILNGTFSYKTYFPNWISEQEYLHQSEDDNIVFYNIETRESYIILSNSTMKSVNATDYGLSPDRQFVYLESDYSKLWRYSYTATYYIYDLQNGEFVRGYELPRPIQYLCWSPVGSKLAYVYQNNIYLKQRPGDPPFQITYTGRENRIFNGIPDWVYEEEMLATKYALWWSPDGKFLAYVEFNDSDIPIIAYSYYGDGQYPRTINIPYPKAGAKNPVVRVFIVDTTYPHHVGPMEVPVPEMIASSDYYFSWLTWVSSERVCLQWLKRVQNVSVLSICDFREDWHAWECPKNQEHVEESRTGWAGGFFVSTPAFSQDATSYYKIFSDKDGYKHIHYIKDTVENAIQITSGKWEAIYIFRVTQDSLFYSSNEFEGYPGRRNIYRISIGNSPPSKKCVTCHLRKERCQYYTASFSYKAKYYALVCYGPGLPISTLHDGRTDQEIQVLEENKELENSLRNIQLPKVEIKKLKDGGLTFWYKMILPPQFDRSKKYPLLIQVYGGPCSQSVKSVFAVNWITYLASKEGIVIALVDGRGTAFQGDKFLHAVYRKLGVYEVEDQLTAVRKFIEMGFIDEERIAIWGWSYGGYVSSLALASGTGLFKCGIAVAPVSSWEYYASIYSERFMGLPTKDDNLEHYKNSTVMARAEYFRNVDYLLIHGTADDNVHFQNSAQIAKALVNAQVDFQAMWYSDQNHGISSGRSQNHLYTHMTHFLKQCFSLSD
Protocol: as §1

Compound: C#CC[C@H](NC(=O)[C@H](CCCNC(=N)N(C)C)NC(=O)c1coc(CNC(=O)CCC(=O)N2CC(F)(F)C[C@H]2C#N)c1)C(=O)N[C@@H](CCCCN)C(=O)O [US20250177582, Compound 2]
- IC50 [1]: 44.1 nM
- IC50 [2]: 29.2 nM
